The target of one assay is recombinant human HDAC6 (Homo sapiens (Human), UniProt Q9UBN7). Nature of the assay: Enzymatic screening, HDAC6 inhibition (fluorogenic FdL_G substrate). Type of assay: biochemical. In a few lines:
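Enzyme was preincubated with compound (8 doses, triplicate, 1% DMSO) in 25 mM Tris-HCl pH 8, 130 mM NaCl, 0.05% Tween-20, 10% glycerol, with BSA. A FLUOR DE LYS-Green substrate was then added, and fluorescence was read after developer plus 2 μM TSA.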

For the next assay, the target named is recombinant human HDAC1 (Homo sapiens (Human), UniProt Q13547). Nature of the assay: Enzymatic screening, HDAC1 inhibition (fluorogenic FdL_G substrate). Type of assay: biochemical. The gist of the method:
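Recombinant human HDAC1 inhibition was measured fluorometrically using the FLUOR DE LYS-Green (FdL_G) substrate. Compounds at 8 doses (1% DMSO final) in Tris-HCl pH 8 buffer with NaCl, Tween-20 and glycerol were preincubated in triplicate with enzyme and 1 mg/mL BSA, then given substrate. Developer I plus 2 μM TSA was added, and fluorescence read after 25 minutes in the dark.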

Molecules are shown by their SMILES.

Chain of recombinant human HDAC6 (Q9UBN7 whole entry): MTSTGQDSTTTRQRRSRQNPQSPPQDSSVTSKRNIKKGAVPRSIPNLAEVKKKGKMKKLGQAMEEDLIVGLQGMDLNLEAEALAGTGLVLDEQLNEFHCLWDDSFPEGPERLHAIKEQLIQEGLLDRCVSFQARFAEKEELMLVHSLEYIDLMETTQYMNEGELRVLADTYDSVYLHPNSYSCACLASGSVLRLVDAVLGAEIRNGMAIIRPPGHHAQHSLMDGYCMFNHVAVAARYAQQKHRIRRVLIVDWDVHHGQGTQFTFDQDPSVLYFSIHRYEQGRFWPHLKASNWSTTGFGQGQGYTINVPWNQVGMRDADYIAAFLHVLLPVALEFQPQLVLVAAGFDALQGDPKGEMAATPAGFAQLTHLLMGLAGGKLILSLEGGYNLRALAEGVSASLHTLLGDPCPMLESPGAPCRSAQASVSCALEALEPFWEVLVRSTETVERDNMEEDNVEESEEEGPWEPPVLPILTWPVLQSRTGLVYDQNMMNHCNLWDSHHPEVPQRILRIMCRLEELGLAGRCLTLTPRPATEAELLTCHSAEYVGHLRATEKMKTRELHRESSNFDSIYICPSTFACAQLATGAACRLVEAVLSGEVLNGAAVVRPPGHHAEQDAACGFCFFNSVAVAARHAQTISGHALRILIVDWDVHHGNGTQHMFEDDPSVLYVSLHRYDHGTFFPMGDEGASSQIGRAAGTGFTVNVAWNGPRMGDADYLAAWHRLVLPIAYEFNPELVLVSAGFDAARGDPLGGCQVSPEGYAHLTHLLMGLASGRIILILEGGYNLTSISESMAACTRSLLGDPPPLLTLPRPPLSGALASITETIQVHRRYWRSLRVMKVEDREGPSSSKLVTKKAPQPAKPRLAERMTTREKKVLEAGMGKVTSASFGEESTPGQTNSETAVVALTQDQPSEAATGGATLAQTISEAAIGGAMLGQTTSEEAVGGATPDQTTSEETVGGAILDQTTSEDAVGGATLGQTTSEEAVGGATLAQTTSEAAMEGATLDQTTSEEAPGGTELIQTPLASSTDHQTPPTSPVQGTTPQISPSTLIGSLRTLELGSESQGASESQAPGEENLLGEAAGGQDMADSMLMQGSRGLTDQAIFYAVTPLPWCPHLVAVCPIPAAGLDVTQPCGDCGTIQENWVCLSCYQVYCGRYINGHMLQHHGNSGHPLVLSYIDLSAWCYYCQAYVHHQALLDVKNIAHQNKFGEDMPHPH
Chain of recombinant human HDAC1 (Q13547 whole entry): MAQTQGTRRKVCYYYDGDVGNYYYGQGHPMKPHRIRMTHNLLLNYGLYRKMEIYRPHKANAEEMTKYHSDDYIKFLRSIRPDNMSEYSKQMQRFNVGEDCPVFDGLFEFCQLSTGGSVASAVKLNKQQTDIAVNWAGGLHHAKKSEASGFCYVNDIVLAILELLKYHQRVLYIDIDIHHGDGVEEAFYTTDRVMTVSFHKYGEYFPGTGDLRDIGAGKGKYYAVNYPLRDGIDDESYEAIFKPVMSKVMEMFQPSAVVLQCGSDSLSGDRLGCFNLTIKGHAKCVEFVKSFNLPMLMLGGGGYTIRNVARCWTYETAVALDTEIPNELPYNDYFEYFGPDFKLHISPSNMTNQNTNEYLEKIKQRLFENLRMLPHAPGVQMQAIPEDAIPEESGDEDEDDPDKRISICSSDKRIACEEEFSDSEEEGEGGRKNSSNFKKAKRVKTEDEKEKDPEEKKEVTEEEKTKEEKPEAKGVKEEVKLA

As to `Nc1cccc(-c2nnn(Cc3ccc(-c4nnc(C(F)F)o4)cc3)n2)c1` [compound 129, 3-[2-[[4-[5-(difluoromethyl)-1,3,4-oxadiazol-2-yl]phenyl]methyl]tetrazol-5-yl]aniline], the results for the IC50 on recombinant human HDAC6 and on recombinant human HDAC1 were 50 nM and above 200 µM, respectively.

For `FC(F)c1nnc(-c2ccc(Cn3nnc(-c4cccc(-c5cnc(N6CCOCC6)s5)c4)n3)nc2)o1` [compound 130, 4-(5-(3-(2-((5-(5-(difluoromethyl)-1,3,4-oxadiazol-2-yl)pyridin-2-yl)methyl)-2H-tetrazol-5-yl)phenyl)thiazol-2-yl)morpholine], the IC50 is 50 nM on recombinant human HDAC6 and above 200 µM on recombinant human HDAC1.

Take `Nc1nc2cc(-c3cn(Cc4ccc(-c5nnc(C(F)F)o5)cc4)nn3)ccc2s1` [compound 132, 5-(1-(4-(5-(difluoromethyl)-1,3,4-oxadiazol-2-yl)benzyl)-1H-1,2,3-triazol-4-yl)benzo[d]thiazol-2-amine]: the IC50 is 51 nM on recombinant human HDAC6 and above 200 µM on recombinant human HDAC1.

With `Nc1ccc(-c2cn(Cc3ccc(-c4nnc(C(F)F)o4)cc3Cl)nn2)cn1` [compound 134, 5-(1-(2-chloro-4-(5-(difluoromethyl)-1,3,4-oxadiazol-2-yl)benzyl)-1H-1,2,3-triazol-4-yl)pyridin-2-amine], the concentration for half-maximal inhibition (IC50) at recombinant human HDAC6 was 52 nM; on recombinant human HDAC1 it was above 200 µM.

`Nc1ccc(-c2noc(Cc3ccc(-c4nnc(C(F)F)o4)cc3)n2)cn1` [compound 135, 5-(5-(4-(5-(difluoromethyl)-1,3,4-oxadiazol-2-yl)benzyl)-1,2,4-oxadiazol-3-yl)pyridin-2-amine]: the results for the IC50 at recombinant human HDAC6 and at recombinant human HDAC1 were 53 nM and above 200 µM, respectively.

Consider `FC(F)c1nnc(-c2ccc(Cn3cc(-c4ccc5nc(Cl)[nH]c5c4)nn3)cc2)o1` [compound 136, 2-(4-((4-(2-chloro-1H-benzo[d]imidazol-6-yl)-1H-1,2,3-triazol-1-yl)methyl)phenyl)-5-(difluoromethyl)-1,3,4-oxadiazole], for which the IC50 was 53 nM at recombinant human HDAC6 and above 200 µM on recombinant human HDAC1.

As for `O=C(c1cccc(-c2nnn(Cc3ccc(-c4nnc(C(F)F)o4)c(F)c3)n2)c1)N1CCOCC1` [compound 137, (3-(2-(4-(5-(difluoromethyl)-1,3,4-oxadiazol-2-yl)-3-fluorobenzyl)-2H-tetrazol-5-yl)phenyl)(morpholino)methanone], the half-inhibitory concentration (IC50) is 53 nM at recombinant human HDAC6 and above 200 µM on recombinant human HDAC1.

`CC(=O)Nc1cccc(-c2cn(Cc3ccc(-c4nnc(C(F)F)o4)cc3)nn2)c1` [compound 139, N-(3-(1-(4-(5-(difluoromethyl)-1,3,4-oxadiazol-2-yl)benzyl)-1H-1,2,3-triazol-4-yl)phenyl)acetamide]: the results for the IC50 at recombinant human HDAC6 and on recombinant human HDAC1 were 55 nM and above 200 µM, respectively.

`Nc1ccc(-c2nc(Cc3c(F)cc(-c4nnc(C(F)F)o4)cc3F)no2)cn1` [compound 141, 5-(3-(4-(5-(difluoromethyl)-1,3,4-oxadiazol-2-yl)-2,6-difluorobenzyl)-1,2,4-oxadiazol-5-yl)pyridin-2-amine]: the half-inhibitory concentration (IC50) on recombinant human HDAC6 is 56 nM; at recombinant human HDAC1, above 200 µM.

Regarding `CNc1ccc2cc(-c3cn(Cc4ccc(-c5nnc(C(F)F)o5)cc4)nn3)ccc2n1` [compound 142, 6-(1-(4-(5-(difluoromethyl)-1,3,4-oxadiazol-2-yl)benzyl)-1H-1,2,3-triazol-4-yl)-N-methylquinolin-2-amine], the results for the half-maximal inhibitory concentration (IC50) on recombinant human HDAC6 and at recombinant human HDAC1 were 59 nM and above 200 µM, respectively.

With `CN1CCN(C(=O)Nc2cccc(-c3cn(Cc4ccc(-c5nnc(C(F)F)o5)cc4)nn3)c2)CC1` [compound 146, N-(3-(1-(4-(5-(difluoromethyl)-1,3,4-oxadiazol-2-yl)benzyl)-1H-1,2,3-triazol-4-yl)phenyl)-4-methylpiperazine-1-carboxamide], the results for the IC50 at recombinant human HDAC6 and at recombinant human HDAC1 were 62 nM and above 200 µM, respectively.

Take `FC(F)c1nnc(-c2ccc(Cn3nnc(C4(c5ccccn5)CC4)n3)cc2)o1` [compound 147, 2-(difluoromethyl)-5-(4-((5-(1-(pyridin-2-yl)cyclopropyl)-2H-tetrazol-2-yl)methyl)phenyl)-1,3,4-oxadiazole]: the IC50 at recombinant human HDAC6 was 63 nM; at recombinant human HDAC1, above 200 µM.

Turning to `FC(F)c1nnc(-c2ccc(Cn3nnc(-c4ccc(N5CCNCC5)nc4)n3)cc2)o1` [compound 148, 2-(difluoromethyl)-5-(4-((5-(6-(piperazin-1-yl)pyridin-3-yl)-2H-tetrazol-2-yl)methyl)phenyl)-1,3,4-oxadiazole], the half-inhibitory concentration (IC50) on recombinant human HDAC6 was 63 nM; at recombinant human HDAC1, above 200 µM.

Take `CN1CC(C(=O)Nc2cccc(-c3cn(Cc4ccc(-c5nnc(C(F)F)o5)cc4)nn3)c2)C1` [compound 149, N-(3-(1-(4-(5-(difluoromethyl)-1,3,4-oxadiazol-2-yl)benzyl)-1H-1,2,3-triazol-4-yl)phenyl)-1-methylazetidine-3-carboxamide]: the figures for the IC50 on recombinant human HDAC6 and on recombinant human HDAC1 were 64 nM and above 200 µM, respectively.

With `O=[N+]([O-])c1ccccc1-c1nnn(Cc2ccc(-c3nnc(C(F)F)o3)cc2)n1` [compound 150, 2-(difluoromethyl)-5-(4-((5-(2-nitrophenyl)-2H-tetrazol-2-yl)methyl)phenyl)-1,3,4-oxadiazole], the results for the IC50 on recombinant human HDAC6 and at recombinant human HDAC1 were 64 nM and above 200 µM, respectively.

As to `Nc1nc2cc(-c3nnn(Cc4ccc(-c5nnc(C(F)F)o5)cc4)n3)ccc2o1` [compound 152, 5-(2-(4-(5-(difluoromethyl)-1,3,4-oxadiazol-2-yl)benzyl)-2H-tetrazol-5-yl)benzo[d]oxazol-2-amine], the IC50 was 65 nM at recombinant human HDAC6 and above 200 µM at recombinant human HDAC1.

Regarding `FC(F)c1nnc(-c2ccc(Cn3nnc(-c4cccc5cnccc45)n3)cc2)o1` [compound 153, 2-(difluoromethyl)-5-(4-((5-(isoquinolin-5-yl)-2H-tetrazol-2-yl)methyl)phenyl)-1,3,4-oxadiazole], the IC50 on recombinant human HDAC6 was 66 nM; on recombinant human HDAC1, above 200 µM.

For the compound `NCc1ccc(-c2cn(Cc3ccc(-c4nnc(C(F)F)o4)cc3)nn2)cn1` [compound 155, (5-(1-(4-(5-(difluoromethyl)-1,3,4-oxadiazol-2-yl)benzyl)-1H-1,2,3-triazol-4-yl)pyridin-2-yl)methanamine], the concentration for half-maximal inhibition (IC50) on recombinant human HDAC6 is 69 nM; at recombinant human HDAC1, above 200 µM.

As to `O=C(Nc1cccc(-c2nnn(Cc3ccc(-c4nnc(C(F)F)o4)cc3)n2)c1)c1ccccc1` [compound 156, N-(3-(2-(4-(5-(difluoromethyl)-1,3,4-oxadiazol-2-yl)benzyl)-2H-tetrazol-5-yl)phenyl)benzamide], the IC50 is 70 nM at recombinant human HDAC6 and above 200 µM on recombinant human HDAC1.

On to `Nc1cc(-c2nnn(Cc3c(F)cc(-c4nnc(C(F)F)o4)cc3F)n2)ccc1OC(=O)N1CCOCC1` [compound 160, 2-amino-4-(2-(4-(5-(difluoromethyl)-1,3,4-oxadiazol-2-yl)-2,6-difluorobenzyl)-2H-tetrazol-5-yl)phenyl morpholine-4-carboxylate], for which the values for the IC50 at recombinant human HDAC6 and at recombinant human HDAC1 were 74 nM and above 200 µM, respectively.

For the compound `O=C1Nc2cc(-c3cn(Cc4ccc(-c5nnc(C(F)F)o5)cc4)nn3)ccc2C12CCNCC2` [compound 161, 6-(1-(4-(5-(difluoromethyl)-1,3,4-oxadiazol-2-yl)benzyl)-1H-1,2,3-triazol-4-yl)spiro[indoline-3,4′-piperidin]-2-one], the figures for the IC50 on recombinant human HDAC6 and on recombinant human HDAC1 were 75 nM and above 200 µM, respectively.

As to `Cn1c(=N)n(C)c2cc(-c3cn(Cc4ccc(-c5nnc(C(F)F)o5)cc4)nn3)ccc21` [compound 162, 5-(1-(4-(5-(difluoromethyl)-1,3,4-oxadiazol-2-yl)benzyl)-1H-1,2,3-triazol-4-yl)-1,3-dimethyl-1,3-dihydro-2H-benzo[d]imidazol-2-imine], the IC50 on recombinant human HDAC6 was found to be 76 nM; on recombinant human HDAC1, 45.1 µM.

In the case of `CN(C)S(=O)(=O)c1ccc(F)c(-c2nnn(Cc3ccc(-c4nnc(C(F)F)o4)cc3)n2)c1` [compound 163, 3-(2-(4-(5-(difluoromethyl)-1,3,4-oxadiazol-2-yl)benzyl)-2H-tetrazol-5-yl)-4-fluoro-N,N-dimethylbenzenesulfonamide], the IC50 at recombinant human HDAC6 is 77 nM; at recombinant human HDAC1, above 200 µM.

Turning to `CNc1ccc(-c2nnn(Cc3ccc(-c4nnc(C(F)F)o4)cc3)n2)cc1N` [compound 164, 4-(2-(4-(5-(difluoromethyl)-1,3,4-oxadiazol-2-yl)benzyl)-2H-tetrazol-5-yl)-N-1-methylbenzene-1,2-diamine], the IC50 was 77 nM at recombinant human HDAC6 and above 200 µM on recombinant human HDAC1.

With `CC(c1ccc(-c2nnc(C(F)F)o2)cc1F)n1cc(-c2cccc(NC(=O)N3CCOCC3)c2)nn1` (centres unmarked) [compound 165, N-(3-(1-(1-(4-(5-(difluoromethyl)-1,3,4-oxadiazol-2-yl)-2-fluorophenyl)ethyl)-1H-1,2,3-triazol-4-yl)phenyl)morpholine-4-carboxamide], the values for the IC50 at recombinant human HDAC6 and on recombinant human HDAC1 were 78 nM and above 200 µM, respectively.

Consider `Cn1c(N)nc2ccc(-c3cn(Cc4ccc(-c5nnc(C(F)F)o5)cc4)nn3)cc21` [compound 166, 6-(1-(4-(5-(difluoromethyl)-1,3,4-oxadiazol-2-yl)benzyl)-1H-1,2,3-triazol-4-yl)-1-methyl-1H-benzo[d]imidazol-2-amine], for which the IC50 on recombinant human HDAC6 was 78 nM; at recombinant human HDAC1 it was above 200 µM.

Regarding `O=C1NCc2cc(-c3nnn(Cc4ccc(-c5nnc(C(F)F)o5)cc4)n3)ccc21` [compound 167, 5-(2-(4-(5-(difluoromethyl)-1,3,4-oxadiazol-2-yl)benzyl)-2H-tetrazol-5-yl)isoindolin-1-one], the IC50 on recombinant human HDAC6 is 79 nM; on recombinant human HDAC1, above 200 µM.

For `O=c1[nH]c2ccc(-c3nnn(Cc4ccc(-c5nnc(C(F)F)o5)cc4)n3)cc2[nH]1` [compound 168, 5-(2-(4-(5-(difluoromethyl)-1,3,4-oxadiazol-2-yl)benzyl)-2H-tetrazol-5-yl)-1,3-dihydro-2H-benzo[d]imidazol-2-one], the IC50 on recombinant human HDAC6 was 79 nM; on recombinant human HDAC1 it was above 200 µM.

Values taken from patent US20230286970A1, “NOVEL OXADIAZOLE-BASED SELECTIVE HDAC6 INHIBITORS” (ITALFARMACO S.P.A., priority 2020, published 2023).
